Reference: patent US20070010489A1 (priority 2002, published 2007)
Read-outs that look alike come from different tables or passages of the source.

How the values were obtained:
84V90M [1] = molecular target: T1, 84V90M (Human immunodeficiency virus type 1 group M subtype B, UniProt P04585, I572V/L578M); assay: biochemical; format: biochemical, HIV; details: Enzymatic assay
84V90M [2] = molecular target: T1, 84V90M; assay: cell-based; set-up: species or system HIV; details: Cell-based assay (MT-4)
[3] = molecular target: T2, recombinant HIV-1 protease (Human immunodeficiency virus type 1 group M subtype B, UniProt P04585); assay: biochemical; details: for Ki: read-out: Ki; for IC50: read-out: WT IC50
T2 construct: Enzyme: recombinant HIV-1 protease expressed in E. Coli; purchased Bachem California, Inc. H-9040; host or cells: E. coli

84V90M [4] = molecular target: T1, 84V90M; format: biochemical, HIV; details: Enzymatic assay
48V54V82A = assay: microbe, parasite or virus in culture; format: cell-based, HIV
48V82A90M = assay: microbe, parasite or virus in culture; format: cell-based, HIV
30N82I88D = assay: microbe, parasite or virus in culture; format: cell-based, HIV
48V54V82S = assay: microbe, parasite or virus in culture; format: cell-based, HIV
46I50V = assay: microbe, parasite or virus in culture; format: cell-based, HIV
WT = assay: microbe, parasite or virus in culture; format: cell-based, HIV
I84V/L90M = tested on: I84V/L90M; set-up: key to the marks not given beside the values
HIV = assay: microbe, parasite or virus in culture; format: cell-based; details: Human immunodeficiency virus 1
I50V (#1) = tested on: I50V (#1); set-up: key to the marks not given beside the values
[5] = tested on: Recombinant HIV-1 Strains With Resistance Mutations in the Protease Gene; assay: Cross-Resistance Profile Assay, whole panel; format: cell-based; details: resistance = 5-fold and higher change in EC50 vs wild type; 11 mutant viruses
[6] = tested on: recombinant HIV-1 48V/54V/71V/82S; assay: microbe, parasite or virus in culture; format: cell-based; details: MT-4, 48V54V82S; read-out: Cell-based assay (MT-4) EC50/nM 48V54V82S
[7] = tested on: recombinant HIV-1 10I/48V/54V/82A; assay: microbe, parasite or virus in culture; format: cell-based; details: MT-4, 48V54V82A; read-out: Cell-based assay (MT-4) EC50/nM 48V54V82A
[8] = tested on: mutant HIV-1 with I84V/L90M mutations; assay: microbe, parasite or virus in culture; format: cell-based
[9] = tested on: recombinant HIV-1 30N/50S/82I/88D; assay: microbe, parasite or virus in culture; format: cell-based; details: MT-4, 30N82I88D; read-out: Cell-based assay (MT-4) EC50/nM 30N82I88D
[10] = tested on: recombinant HIV-1 46I/47V/50V; assay: microbe, parasite or virus in culture; format: cell-based; details: MT-4, 46I50V; read-out: Cell-based assay (MT-4) EC50/nM 46I50V
[11] = tested on: recombinant HIV-1 10I/48V/71V/82A/90M; assay: microbe, parasite or virus in culture; format: cell-based; details: MT-4, 48V82A90M; read-out: Cell-based assay (MT-4) EC50/nM 48V82A90M
[12] = tested on: wild-type HIV-1 strain IIIB; assay: microbe, parasite or virus in culture; format: cell-based; details: Human immunodeficiency virus 1, IIIB
[13] = Human immunodeficiency virus 1, read-out: EC50 48V54V 82A
[14] = Human immunodeficiency virus 1, read-out: EC50 30N 82I88D
[15] = Human immunodeficiency virus 1, read-out: EC50 46I50V
[16] = Human immunodeficiency virus 1, read-out: EC50 WT

CCOP(=O)(CCNC(=O)Oc1ccc(CC2C(O)C(O)C(Cc3ccc(OC)cc3)N(Cc3ccc(O)cc3)C(=O)N2Cc2ccc(O)cc2)cc1)OCC (stereo not shown) [OCH3, Ph-pOH, OCONH(CH2)2PO3Et2]
IC50 (84V90M [1]): 49 nM

CCOP(=O)(COc1ccc(CN2C(=O)N(Cc3ccc4[nH]nc(N)c4c3)C(Cc3ccccc3)C(O)C(O)C2Cc2ccccc2)cc1)OCC (stereo not shown)
EC50 (84V90M [2]): > 6 µM
Ki [3]: > 5 nM
IC50 [3]: 627 nM
IC50 (84V90M [4]): 1470 nM

O=C1N(Cc2ccccc2)C(Cc2ccccc2)C(O)C(O)C(Cc2ccc(OCP(=O)(O)O)cc2)N1Cc1ccccc1 (stereo not shown) [listing 1 of 2 here]
EC50 (84V90M [2]): 2.46 µM
EC50 (48V54V82A; Cell-based assay (MT-4), 48V54V82A, read-out: EC50 48V54V 82A): 1440 nM
EC50 (48V82A90M; read-out: EC50 48V82A 90M, Cell-based assay (MT-4), 48V82A90M): 3290 nM
EC50 (30N82I88D; Cell-based assay (MT-4), 30N82I88D, read-out: EC50 30N 82I88D): 293 nM
EC50 (48V54V82S; Cell-based assay (MT-4), 48V54V82S, read-out: EC50 48V54V 82S): 1900 nM
EC50 (46I50V; Cell-based assay (MT-4), 46I50V, read-out: EC50 46I50V): 589 nM
IC50 (84V90M [4]): 48 nM
EC50 (WT; read-out: EC50 WT): 107 nM

Nc1n[nH]c2ccc(CN3C(=O)N(Cc4cccc(OCP(=O)(OCc5ccccc5)OCc5ccccc5)c4)C(Cc4ccccc4)C(O)C(O)C3Cc3ccccc3)cc12 (stereo not shown)
EC50 (84V90M [2]): > 6 µM
Ki [3]: 0.177 nM
IC50 [3]: 18 nM
IC50 (84V90M [4]): 43 nM

Nc1n[nH]c2ccc(CN3C(=O)N(Cc4ccc(O)cc4)C(Cc4ccccc4)C(O)C(O)C3Cc3ccccc3)cc12 (stereo not shown) [p-OH]
EC50 (48V54V82A; [13]): 32 nM
EC50 (48V82A90M; Human immunodeficiency virus 1, read-out: EC50 48V82A 90M): 19 nM
EC50 (30N82I88D; [14]): 79 nM
EC50 (48V54V82S; Human immunodeficiency virus 1, read-out: EC50 48V54V 82S): 39 nM
EC50 (46I50V; [15]): 55 nM

CCOP(=O)(COc1cccc(CN2C(=O)N(Cc3ccc4[nH]nc(N)c4c3)C(Cc3ccccc3)C(O)C(O)C2Cc2ccccc2)c1)OCC (stereo not shown)
EC50 (84V90M [2]): 3 µM
Ki [3]: 1.93 nM
IC50 [3]: 70 nM
IC50 (84V90M [4]): 169 nM

COc1ccc(S(=O)(=O)N(CC(O)C(Cc2ccccc2)NC(=O)OC2COC3OCCC23)CC(C)(C)CCOCP(=O)(O)O)cc1 (stereo not shown)
I84V/L90M fold change (I84V/L90M): ++
EC50 (HIV): 50 to 500 nM
I50V (#1) fold change (I50V (#1)): ++

COc1ccc(S(=O)(=O)N(CC(O)C(Cc2ccccc2)NC(=O)OC2COC3OCCC23)CC(C)(C)COCP(=O)(O)O)cc1 (stereo not shown)
I84V/L90M fold change (I84V/L90M): +++
EC50 (HIV): 500 to 5000 nM

O=C1N(Cc2ccccc2)C(Cc2ccccc2)C(O)C(O)C(Cc2ccc(OCP(=O)(OCc3ccccc3)OCc3ccccc3)cc2)N1Cc1ccccc1 (stereo not shown)
IC50 (84V90M [1]): 158 nM

CCCCOC(=O)C(C)NP(=O)(COc1ccc(CC(NC(=O)OC2COC3OCCC23)C(O)CN(CC(C)C)S(=O)(=O)c2ccc(OC)cc2)cc1)NC(C)C(=O)OCCCC (stereo not shown) [GS-16503]
Total No. of Resistant Viruses [5]: 0

COc1ccc(S(=O)(=O)N(CC(O)C(Cc2ccccc2)NC(=O)OC2COC3OCCC23)CC(C)(C)COCP(=O)(OCc2ccccc2)OCc2ccccc2)cc1 (stereo not shown)
I84V/L90M fold change (I84V/L90M): ++
EC50 (HIV): < 50 nM

CCOP(=O)(COc1ccc(CC2C(O)C(O)C(Cc3ccc(OC)cc3)N(Cc3ccc(O)cc3)C(=O)N2Cc2ccc(O)cc2)cc1)OCC (stereo not shown) [OCH3, Ph-pOH, OCH2PO3Et2]
EC50 [6]: 129 nM
EC50 [7]: 70 nM
EC50 ([8]; MT-4, 84V90M, read-out: Cell-based assay (MT-4) EC50/nM 84V90M): 148 nM
EC50 [9]: 25 nM
EC50 [10]: 90 nM
EC50 [11]: 54 nM

CCOP(=O)(COc1ccc(CC2C(O)C(O)C(Cc3ccc(OC)cc3)N(Cc3cccc(N)c3)C(=O)N2Cc2cccc(N)c2)cc1)OCC (stereo not shown) [OCH3, Ph-mNH2, OCH2PO3Et2]
EC50 (84V90M [2]): 0.535 µM
IC50 (84V90M [4]): 56 nM
IC50 (84V90M [1]): 56 nM

CCOP(=O)(COCC(C)(C)CN(CC(O)C(Cc1ccccc1)NC(=O)OC1COC2OCCC12)S(=O)(=O)c1ccc(OC)cc1)OCC (stereo not shown)
I84V/L90M fold change (I84V/L90M): +++
EC50 (HIV): < 50 nM

COc1ccc(S(=O)(=O)N(CC(O)C(Cc2ccccc2)NC(=O)OC2COC3OCCC23)CC(C)(C)CO)cc1 (stereo not shown)
I84V/L90M fold change (I84V/L90M): +++
EC50 (HIV): < 50 nM
I50V (#1) fold change (I50V (#1)): +++

CCOC(=O)C(C)OP(=O)(COc1ccc(CC(NC(=O)OC2COC3OCCC23)C(O)CN(CC(C)C)S(=O)(=O)c2ccc(OC)cc2)cc1)Oc1ccccc1 (stereo not shown) [drawing 1775 R1=OPh R2=Lac-Et]
CC50 (MT-2 cells; class symbols): 5 to 50 µM

O=C1N(Cc2ccccc2)C(Cc2ccccc2)C(O)C(O)C(Cc2ccccc2)N1Cc1ccccc1 (stereo not shown) [H, Ph, H]
IC50 [3]: 34 nM
EC50 (30N82I88D; [14]): 3360 nM
IC50 (84V90M [4]): 631 nM
EC50 (WT; [16]): 2490 nM

COc1ccc(S(=O)(=O)N(CC(C)C)CC(O)C(Cc2ccc(OCP(=O)(OCc3ccccc3)OCc3ccccc3)cc2)NC(=O)OC2COC3OCCC23)cc1 (stereo not shown) [drawing 1768 R1=OBn R2=OBn]
I84V/L90M fold change ([8]; fold difference in EC50 mutant vs wild type, class symbols): − (≦3)
CC50 (MT-2 cells; human): 5 to 50 µM
EC50 [12]: < 50 nM

Nc1n[nH]c2ccc(CN3C(=O)N(Cc4cccc(OCP(=O)(O)O)c4)C(Cc4ccccc4)C(O)C(O)C3Cc3ccccc3)cc12 (stereo not shown) [m-OCH2PO3H2]
IC50 (84V90M [4]): 33 nM
EC50 (WT; read-out: EC50 WT): > 12000 nM

O=C1N(Cc2ccccc2)C(Cc2ccccc2)C(O)C(O)C(Cc2ccc(OCP(=O)(O)O)cc2)N1Cc1ccccc1 (stereo not shown) [listing 2 of 2 here]
IC50 (84V90M [1]): 210 nM

COc1ccc(S(=O)(=O)N(Cc2ccccc2)CC(O)C(Cc2ccccc2)NC(=O)OC2COC3OCCC23)cc1 (stereo not shown)
I84V/L90M fold change (I84V/L90M): +++
EC50 (HIV): < 50 nM
I50V (#1) fold change (I50V (#1)): +++

Nc1n[nH]c2ccc(CN3C(=O)N(Cc4ccc(OCP(=O)(OCc5ccccc5)OCc5ccccc5)cc4)C(Cc4ccccc4)C(O)C(O)C3Cc3ccccc3)cc12 (stereo not shown)
EC50 (84V90M [2]): 4.96 µM
Ki [3]: > 5 nM
IC50 [3]: 276 nM
IC50 (84V90M [4]): 2040 nM

Nc1n[nH]c2ccc(CN3C(=O)N(Cc4cccc(O)c4)C(Cc4ccccc4)C(O)C(O)C3Cc3ccccc3)cc12 (stereo not shown) [m-OH]
EC50 (84V90M [2]): 0.475 µM
Ki [3]: 0.128 nM
IC50 [3]: 1.6 nM
IC50 (84V90M [4]): 12 nM

O=C1N(Cc2ccccc2)C(Cc2ccc(O)cc2)C(O)C(O)C(Cc2ccc(O)cc2)N1Cc1ccccc1 (stereo not shown) [OH, Ph, OH]
EC50 (84V90M [2]): 5.61 µM
EC50 (48V54V82A; [13]): 2270 nM
IC50 [3]: 31 nM
EC50 (30N82I88D; [14]): 756 nM
EC50 (46I50V; [15]): 928 nM
IC50 (84V90M [4]): 397 nM
EC50 (WT; [16]): 117 nM

Nc1n[nH]c2ccc(CN3C(=O)N(Cc4ccc(OCc5ccccc5)cc4)C(Cc4ccccc4)C(O)C(O)C3Cc3ccccc3)cc12 (stereo not shown) [p-OBn]
EC50 (84V90M [2]): 5.31 µM
Ki [3]: > 5 nM
IC50 [3]: 353 nM
EC50 (WT; read-out: EC50 WT): 2120 nM

COc1ccc(S(=O)(=O)N(CC(O)C(Cc2ccccc2)NC(=O)OC2COC3OCCC23)CC(C)(C)CCOCP(=O)(OCc2ccccc2)OCc2ccccc2)cc1 (stereo not shown)
I84V/L90M fold change (I84V/L90M): +++
EC50 (HIV): < 50 nM
I50V (#1) fold change (I50V (#1)): +++
